# Reference: paper PMC9551036, “A selective and orally bioavailable VHL-recruiting PROTAC achieves SMARCA2 degradation in vivo” (Nature Communications, 2022)
# Values joined by “and” are separate entries in the source; they are usually repeats but may differ in a detail not shown here. Identical values can stand only once. Like-named read-outs stand apart in the source and are kept apart here.
# Experiments:
# [1] = target: T1, SMARCA2 (Homo sapiens, UniProt P51531); experiment: SMARCA2 capillary electrophoresis protein assay in RKO cells; assay type: cell-based; parameters: endogenous in cells; host or cells: RKO, NCI-H1568, A549, HCT116, LU99, HCC-364, HCT-15, HCC4006, SK-N-AS; conditions: mean ± SD
# T1 sequence (P51531 whole entry): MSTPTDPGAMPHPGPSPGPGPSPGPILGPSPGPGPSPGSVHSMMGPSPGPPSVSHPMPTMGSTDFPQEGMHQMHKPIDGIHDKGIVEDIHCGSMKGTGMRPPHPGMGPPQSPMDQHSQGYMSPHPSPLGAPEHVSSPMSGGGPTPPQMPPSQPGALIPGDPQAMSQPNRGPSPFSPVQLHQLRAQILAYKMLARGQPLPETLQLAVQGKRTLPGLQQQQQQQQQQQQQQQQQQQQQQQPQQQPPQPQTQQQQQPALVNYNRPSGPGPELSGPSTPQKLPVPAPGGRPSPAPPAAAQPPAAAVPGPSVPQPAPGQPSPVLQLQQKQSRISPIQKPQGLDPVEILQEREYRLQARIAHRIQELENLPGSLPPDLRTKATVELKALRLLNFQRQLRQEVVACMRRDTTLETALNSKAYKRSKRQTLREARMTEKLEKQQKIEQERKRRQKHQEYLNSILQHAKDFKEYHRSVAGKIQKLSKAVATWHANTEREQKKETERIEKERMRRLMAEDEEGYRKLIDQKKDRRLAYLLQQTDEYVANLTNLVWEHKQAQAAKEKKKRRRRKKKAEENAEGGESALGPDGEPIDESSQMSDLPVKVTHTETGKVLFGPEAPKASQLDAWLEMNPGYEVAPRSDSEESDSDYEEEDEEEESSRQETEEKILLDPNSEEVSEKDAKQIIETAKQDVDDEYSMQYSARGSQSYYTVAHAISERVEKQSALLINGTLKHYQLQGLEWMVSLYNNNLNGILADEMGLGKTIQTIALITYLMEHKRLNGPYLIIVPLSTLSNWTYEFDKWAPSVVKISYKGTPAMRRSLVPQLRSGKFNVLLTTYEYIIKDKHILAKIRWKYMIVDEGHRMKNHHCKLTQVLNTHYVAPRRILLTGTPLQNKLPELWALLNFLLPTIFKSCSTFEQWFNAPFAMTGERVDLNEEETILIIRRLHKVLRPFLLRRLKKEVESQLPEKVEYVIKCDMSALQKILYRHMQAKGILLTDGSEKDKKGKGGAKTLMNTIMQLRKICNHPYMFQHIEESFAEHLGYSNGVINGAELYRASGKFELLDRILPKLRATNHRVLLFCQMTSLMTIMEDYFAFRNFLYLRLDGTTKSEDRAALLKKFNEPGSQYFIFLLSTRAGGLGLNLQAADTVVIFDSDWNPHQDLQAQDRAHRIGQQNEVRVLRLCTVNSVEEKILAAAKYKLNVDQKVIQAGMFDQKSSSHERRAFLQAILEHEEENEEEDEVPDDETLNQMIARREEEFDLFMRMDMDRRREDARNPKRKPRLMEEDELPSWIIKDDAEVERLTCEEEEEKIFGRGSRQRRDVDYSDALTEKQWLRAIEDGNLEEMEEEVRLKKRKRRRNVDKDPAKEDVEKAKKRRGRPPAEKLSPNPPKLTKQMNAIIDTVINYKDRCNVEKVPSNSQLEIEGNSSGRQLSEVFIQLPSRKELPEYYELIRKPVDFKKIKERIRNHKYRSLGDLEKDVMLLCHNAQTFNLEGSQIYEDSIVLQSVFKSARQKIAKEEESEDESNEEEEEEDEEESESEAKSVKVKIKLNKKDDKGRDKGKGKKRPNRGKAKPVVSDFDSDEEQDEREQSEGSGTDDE
# Experimental: 130,000–200,000 cells were seeded in 24-well plates and incubated until settled down or overnight. Compounds were dissolved in DMSO and added to cells in indicated concentrations using a digital dispenser following an optional media change. […] For SMARCA2/4 half-life determination, 150,000 or 200,000 cells were seeded in 24-well plates. […] For SMARCA2/4 re-synthesis measurements, 200,000 cells were seeded in 24-well plates. […] Medium was removed, cells were washed with PBS and lysed with 80 µl Lysis Buffer (MSD Tris Lysis Buffer (#R60TX-2) + Halt Inhibitor Cocktail (100x) + Benzonase 0.5 µL/ml). Samples were frozen at −80 °C and thawed at room temperature before use. Samples were transferred to a V-bottom plate and insoluble debris was pelleted by centrifugation for 5 min at maximum speed. The supernatant was transferred to a fresh plate. Master Mix and Ladder were prepared according to manufacturer’s instructions for 12–230 kDa Wes Separation Module, 8 × 25 capillary cartridges, Protein Simple #SM-W004 with Anti-Rabbit Detection Module for Wes, Peggy Sue or Sally Sue, Protein Simple #DM-001. 4.8 µl lysate were mixed with 1.2 µl Master Mix to achieve a protein concentration of ~0.5 µg/µl. […] Wes plates were prepared and run according to manufacturer’s instructions. Proteins were quantified with accompanying Compass Software. SMARCA2/4 protein levels were normalised to GAPDH. […] Where applicable, curves were fitted using a 4-parametric logistic model.
# [2] = target: T1, SMARCA2; experiment: Imaging-based SMARCA2 protein assay in RKO cells; assay type: cell-based; parameters: endogenous in cells; host or cells: RKO, NCI-H1568, A549, HCT116, LU99, HCC-364, HCT-15, HCC4006, SK-N-AS; conditions: individual replicates
# Experimental: 1250 cells per well in 60 µl medium were plated in flat bottom, poly-lysin coated 384-well plates (CellCarrier Ultra, Perkin Elmer). The next day, test compounds (10 µl of serial dilutions) and DMSO controls were diluted in DMEM medium such that the final DMSO content was <1% or were added using an ultrasound dispensing system. 4 wells were reserved for a background measurement. […] After aspirating the fixing solution, the cells were washed once with 25 µl PBS. 25 µl of blocking buffer (10% goat serum in PBS) was added and cells were incubated for 30 min, then washed once with PBS. […] Cells were again washed once with PBS. […] The cell layer was then washed once with 25 µl PBS, the wells were filled with 25 µl PBS and the plates were sealed with an adhesive sheet. They were then imaged on the Opera Phoenix (mean intensity in the nucleus). […] EC50 values were computed using a 4-parametric logistic model.
# [3] = target: T2, PBRM1 BD (Homo sapiens, UniProt Q86U86); experiment: TR-FRET binary and ternary (PROTAC + VCB) affinity, PBRM1 bromodomain; assay type: binding; conditions: individual replicates
# T2 construct: GST (TEV site) (N); made in house; host or cells: Escherichia coli BL21(DE3)
# [4] = target: T3, PBRM1BD5 (Homo sapiens, UniProt Q86U86); experiment: TR-FRET ternary complex affinity and cooperativity, PBRM1; assay type: binding; conditions: TR-FRET competition for PBRM1BD5, without VCB; mean ± SD; read-out: TR-FRET PBRM1BD EC50
# T3 construct: GST (TEV site) (N); His6 (TEV site) (N, cleaved yes); made in house; host or cells: PBRM1^BD5: Escherichia coli BL21(DE3)
# T3 sequence (Q86U86 645-766): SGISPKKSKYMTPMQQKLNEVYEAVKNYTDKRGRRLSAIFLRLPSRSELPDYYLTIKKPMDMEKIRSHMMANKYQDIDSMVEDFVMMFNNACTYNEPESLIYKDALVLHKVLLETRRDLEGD
# [5] = 4h, read-out: RKO (4h) SMARCA2 DC50
# [6] = 18h, read-out: RKO (18h) SMARCA2 DC50
# [7] = PROTAC + VCB, read-out: Ternary PBRM1 BD EC50 (PROTAC + VCB)
# [8] = binary, PROTAC alone, read-out: PBRM1 EC50
SMILES,DC50 ([1]; RKO (4 h)) [nM],DC50 ([1]; RKO (18 h)) [nM],"DC50 [2, 5]","DC50 [2, 6]","EC50 [3, 7]","EC50 [3, 8]",EC50 [4] [nM],SMARCA2 Dmax ([1]; RKO (18 h)) [%],SMARCA2 Dmax ([1]; RKO (4 h)) [%]
CN1CCN(c2nc(=O)c3c(Cl)cccc3o2)CC1 [compound 13],> 25000,> 25000,> 25000 nM,> 25000 nM,> 10000 nM,> 10000 nM,> 10000,,
CN1CCN(c2nc(=O)c3ccccc3o2)CC1 [compound 14],> 25000,> 25000,> 25000 nM,> 25000 nM,> 10000 nM,> 10000 nM,> 10000,,
CN1CCN(c2nc(=O)c3c(Br)cccc3o2)CC1 [compound 15],> 25000,> 25000,> 25000 nM,> 25000 nM,> 10000 nM,> 10000 nM,> 10000,,
CN1CCN(c2nc(=O)c3c(I)cccc3o2)CC1 [compound 16],> 25000,> 25000,> 25000 nM,> 25000 nM,> 10000 nM,> 10000 nM,> 10000,,
CN1CCN(c2nc(=O)c3c(F)cccc3o2)CC1 [compound 17],> 25000,> 25000,> 25000 nM,> 25000 nM,> 10000 nM,> 10000 nM,> 10000,,
Cc1ncsc1-c1ccc(CNC(=O)[C@@H]2C[C@H](O)CN2C(=O)[C@@H](NC(=O)C2(F)CC2)C(C)(C)C)c(OCCN2CCC(c3ccc4c(c3)n(C3CCCC3)c3nc(=O)c5c(Br)cccc5n43)CC2)c1 [compound 19],> 25000,> 25000,> 25000 nM,> 25000 nM,38.5 nM and 41 nM and 40.2 nM,35.2 nM and 39.5 nM and 40.1 nM,38 ± 2,,
Cc1ncsc1-c1ccc(CNC(=O)[C@@H]2C[C@@H](O)CN2C(=O)[C@@H](NC(=O)C2(F)CC2)C(C)(C)C)c(OCCN2CCC(c3ccc4c(c3)n(C3CCCC3)c3nc(=O)c5c(Br)cccc5n43)CC2)c1 [compound 20],> 25000,> 25000,> 25000 nM,,30.2 nM and 37.8 nM and 37.5 nM,35.1 nM and 43.6 nM and 36.5 nM and 35.9 nM,38 ± 4,,
Cc1ncsc1-c1ccc(CNC(=O)[C@@H]2C[C@@H](O)CN2C(=O)[C@@H](NC(=O)C2(F)CC2)C(C)(C)C)c(OCCOCCOCCN2CCC(c3ccc4c(c3)n(C3CCCC3)c3nc(=O)c5c(Br)cccc5n43)CC2)c1 [compound 21],> 25000,106 ± 38,> 25000 nM,77.5 nM and 151 nM and 100 nM,33.9 nM and 37.8 nM and 41.4 nM,71.9 nM and 80.2 nM and 77.4 nM,76 ± 4,67± 8,
Cc1ncsc1-c1ccc(CNC(=O)[C@@H]2C[C@@H](O)CN2C(=O)[C@@H](NC(=O)C2(F)CC2)C(C)(C)C)c(OCCOCCOCCOCCN2CCC(c3ccc4c(c3)n(C3CCCC3)c3nc(=O)c5c(Br)cccc5n43)CC2)c1 [compound 22],175 ± 165,148 ± 97,85.8 nM and 400 nM and 157 nM,97.4 nM and 276 nM and 121 nM,33.2 nM and 39.2 nM and 42.6 nM,84.2 nM and 107 nM and 111 nM (2×),103 ± 13,75 ± 8,71 ± 25
